Results from patent US20190314311A1, “PHARMACEUTICAL COMPOSITION” (JAPAN SCIENCE AND TECHNOLOGY AGENCY, priority 2016, published 2019).

Key:
Thio-Q62 protein [1] = test: protein aggregation turbidity assay; type: biochemical; conditions: 8.2 μM Thio-Q62, 600 mM arginine, PBS, 37° C., neutral pH, 5 days
Description: In the subsequent experiments, the protein aggregation turbidity assay was performed by the method described in Non-Patent Document 6. Specifically, it was performed as follows.
A solution in which abnormally expanded proteins were dissolved in physiological saline phosphate (PBS) was used as a measurement sample. The solution was incubated at 37° C., and turbidity at 405 nm was measured every 24 hours using a microplate reader “Spectramax Plus plate reader” (Molecular Devices Inc.).
As an abnormally expanded PolyQ protein, a Thioredoxin-Q62 (Thio-Q62) fusion protein consisting of Thioredoxin and a PolyQ stretch with 62 glutamines was used.
As a control, Thio-Q62 protein alone was incubated in the same manner, and the turbidity was measured every 24 hours.
As controls, a solution containing Thio-Q62 protein alone, and a solution containing Thio-Q62 protein and 400 mM proline were incubated in the same manner, respectively, and turbidity was measured after 5 days. […] The relative turbidity (%) of each solution was measured. The turbidity of the solution containing Thio-Q62 protein alone was set to 100%. In the figure, values represent means±SEM (n=3). “*” represents p<0.05, “***” represents p<0.001, “n.s.” represents not significant.

Thio-Q62 protein [2] = test: native PAGE of β-sheet conformational transition; type: biochemical; conditions: 8.2 μM Thio-Q62, 600 mM arginine, PBS pH 7.5, 37° C., five days
Text: The separated proteins were stained with Coomassie brilliant blue (CBB).

[3] = test system: COS-7 cells expressing Q45-GFP; test: FCS analysis of polyQ oligomer formation in cell lysates; type: cell-based; conditions: 25 mM arginine, lysed 48 hours after transfection
Description: For polyQ oligomer formation, the fluorescent protein GFP fused with a protein having a PolyQ repeat consisting of 45 glutamines (Q45-GFP) was used as the monomer. Two indices obtained from FCS measurement were used to assess the property of polyQ oligomers; counts per particle (CPP) and the diffusion time of the fast components (DT1) (Non-Patent Document 11). […] DT1 reflects the size of the Q45-GFP oligomers.
FCS analysis was performed by the method described in Non-Patent Document 11. […] The cell lysates were gently sonicated and centrifuged to remove insoluble Q45-GFP inclusion bodies. The resulting supernatants containing no visible inclusion bodies were subjected to FCS measurements. From the measurements, the diffusion time, which corresponds to the average time for diffusion of fluorescent particles across the detection area and CPP, which directly reflects the number of fluorescent molecules per particle, were calculated.

MJDtr-Q78(S) flies = test: Drosophila model of the PolyQ diseases (SCA3/MJD); type: in vivo, Drosophila melanogaster
Description: The spinocerebellar ataxia type 3 (SCA3/MJD) model flies were used, which express the truncated form of the MJD protein with an abnormally expanded polyQ repeat consisting of 78 glutamines (MJDtr-Q78) in the compound eye (Non-Patent Document 12). The severe compound eye degeneration induced by MJDtrQ78 can be easily detected under the light microscope.
Fly culture and crosses were performed under standard conditions at 25° C. The MJDtr-Q78(S) transgenic fly line bearing the UAS-MJDtr-Q78 transgene for expression of MJDtr-Q78 described in Non-Patent Document 12 was used. The fly line bearing the gmr-GAL4 transgene was obtained from the Drosophila Genetic Resource Center at Kyoto Institute of Technology, Japan. […] For evaluation of compound eye degeneration, light microscopic images of the compound eye were taken using a stereoscopic microscope model “SZX9” (Olympus). For detection of the MJDtr-Q78 protein in eye imaginal discs of third instar larvae, immunostaining with an anti-hemagglutinin antibody (clone 3F10, Roche) was performed according to the method described in Non-Patent Document 13. Fluorescence microscopic images were taken using a confocal laser scanning microscope model “LSM510” (Carl Zeiss).

[4] = test system: Q40-GFP expressing nematode line; test: tail-flick test in C. elegans model of the PolyQ diseases; type: in vivo, Caenorhabditis elegans; conditions: 10 mM arginine, 6 days old nematodes, 20° C.
Description: As a C. elegans model of the polyQ diseases, a Q40-GFP expressing nematode line (Non-Patent Document 14), which is a C. elegans line expressing GFP having a polyQ repeat consisting of 40 glutamines (Q40-GFP) was used.
Nematodes were grown at 20° C. on nematode growth medium (NGM) plates seeded with Escherichia coli OP50. For the generation of the Q40-GFP expression nematode line, plasmids encoding Q40-GFP were injected into wild type strain N2.
Tail-flick tests were performed at 20° C. on nematodes synchronized to 6 days old. First, each nematode was transferred to a separate plate. One drop of S-basal solution was dropped on one nematode, and after waiting for 5 minutes for them to recover, the number of movements of the tail of the worm was measured for 1 minute. The number of movements of the tail was defined as the number of times to change the bending direction of the mid-body of a nematode.

[5] = test system: Q40-GFP expressing nematode line; test: SDD-AGE of polyQ oligomers in nematode lysates; type: in vivo, Caenorhabditis elegans; conditions: 10 mM arginine
Description: SDD-AGE was performed as follows. First, nematodes were lysed in lysis buffer (0.5% SDS, 0.5% NP-40, 50 mM Tris-HCl, 150 mM NaCl, 5 mM EDTA, protease inhibitor cocktail), the resulting lysate was run on a 1% agarose gel with 0.01% SDS in a running buffer of Tris-Glycine containing 0.01% SDS, and then transferred overnight onto a nitrocellulose membrane. For subsequent western blot analysis, the membrane was incubated with the anti-GFP antibody (MBL Life sciences) at 10,000 dilution as the primary antibody at 4° C. overnight, and then with the HRP-conjugated anti-rabbit IgG antibody (MBL Life sciences) at 20,000 dilution as the secondary antibody. Immunoblots were imaged using the Lumino image analyzer system “ImageQuant LAS 4000” (GE Healthcare Life Sciences) and analyzed using “ImageQuantTL” (GE Healthcare Life Sciences).

SCA1 mice = test: balance beam test; type: in vivo, mouse; conditions: 6% arginine in drinking water from 3 weeks; 28 weeks of age; vs untreated SCA1 mice
Description: SCA1 mice were also examined using the balance beam test to assess the motor coordination. For balance beam analysis, mice were assessed on their time to cross a beam with 1 m-long and 15 mm-diameter. The beam was placed approximately 50 cm above the ground with a bright light at the starting end and a dark box at the far end. Mice were initially trained for 3 consecutive days, 2 trials each, so that they learn to cross the beam without falling or turning around. On testing days, the time it took the mice to cross the beam was recorded. If the mice took longer than 60 seconds to cross, the score was counted as 60 seconds. Two trials were performed for each mouse, and a faster time was used for analysis.

[6] = Non-Patent Document 5; cited from earlier work
[7] = Non-Patent Documents 3 and 4; cited from earlier work

## N=C(N)NCCC[C@H](N)C(=O)O [arginine]
Thio-Q62 protein [1]
  lag phase of turbidity time course: elongated the lag phase
  speed of aggregation (turbidity time course): decreased the speed of aggregation
Thio-Q62 protein [2]
  band of β-sheet-rich monomer (native PAGE, CBB): did not appear even when incubated for a sufficient period of time
[3]
  counts per particle (CPP): decreased compared to untreated cells
  diffusion time of the fast components (DT1): decreased compared to untreated cells
MJDtr-Q78(S) flies; food containing arginine (100 mM in FIG. 10)
  number of inclusion bodies in eye discs of larvae: decreased
MJDtr-Q78(S) flies; food containing either 25, 50 or 100 mM arginine
  compound eye degeneration: remarkably ameliorated
[4]
  tail movements per minute: significantly improved
[5]
  smear intensity by image analysis: became smaller
  smear of Q40-GFP oligomers (SDD-AGE image): much lighter and less broad smear
SCA1 mice
  time to cross the balance beam: significantly less time
[6]
  crossing of the blood brain barrier (BBB): known to cross the blood brain barrier
[7]
  safety in clinical trials: safety of arginine has been established
